Test results from ChEMBL document CHEMBL1156751, “Design, synthesis, and biological activity of bicyclic radester analogues as Hsp90 inhibitors” (Bioorg Med Chem Lett, 2009).

Experiments:
MCF7 [1] = experiment: Antiproliferative activity against human MCF7 cells; format: functional, cell-based
SK-BR-3 = experiment: Antiproliferative activity against human SK-BR-3 cells; format: functional, cell-based
[2] = Inhibition of Hsp90 N-terminal assessed as AKt degradation by Western blotting
[3] = Inhibition of Hsp90 N-terminal assessed as c-RAF degradation by Western blotting
[4] = Inhibition of Hsp90 N-terminal assessed as Her2 degradation by Western blotting
[5] = Inhibition of Hsp90 N-terminal assessed as increase in Hsp70 level
MCF7 [6] = experiment: Selectivity ratio of IC50 for human SKBr3 cells to IC50 for human MCF7 cells; format: functional

SMILES	IC50 (MCF7 [1]) [µM]	IC50 (SK-BR-3) [µM]	Activity [2]	Activity [3]	Activity [4]	Activity [5]	Ratio IC50 (MCF7 [6])
COC1=C(C/C=C2/CCc3c(Cl)c(O)cc(O)c3C2=O)C(=O)C(NC=O)=CC1=O	11.8	12.5	–	–	–	–	–
COc1c(O)cc(NC=O)c(O)c1CCC1Cc2c(Cl)c(O)cc(O)c2C1=O (stereo not drawn)	12.9	42.1	Dose-dependent effect	Dose-dependent effect	Dose-dependent effect	Dose-dependent effect	3
COC1=C(C/C=C2/Cc3c(Cl)c(O)cc(O)c3C2=O)C(=O)C(NC=O)=CC1=O	15.2	40.8	–	–	–	–	3
COC1=C(CC(C)OC(=O)c2cc(Cl)c(O)cc2O)C(=O)C(NC=O)=CC1=O (stereo not drawn) [RADESTER]	13.9	–	–	–	–	–	–
C[C@@H]1C[C@H]2O[C@@H]2/C=C\C=C\C(=O)Cc2c(Cl)c(O)cc(O)c2C(=O)O1 [RADICICOL]	0.0477	0.0375	–	–	–	–	–
COC1=C(CCC2Cc3c(Cl)c(O)cc(O)c3C2=O)C(=O)C(NC=O)=CC1=O (stereo not drawn)	15.1	47.3	–	–	–	–	3

Continued, in another order:

IC50 (MCF7 [1]) [µM]	IC50 (SK-BR-3) [µM]	Activity [2]	Activity [3]	Activity [4]	Activity [5]	SMILES	Ratio IC50 (MCF7 [6])
0.0161	0.0158	–	–	–	–	COC1=C2C[C@@H](C)C[C@H](OC)[C@H](O)[C@@H](C)/C=C(\C)[C@H](OC(N)=O)[C@@H](OC)/C=C\C=C(/C)C(=O)NC(=CC1=O)C2=O [GELDANAMYCIN]	–
11.4	12.8	–	–	–	–	COC1=C(CCC2CCc3c(Cl)c(O)cc(O)c3C2=O)C(=O)C(NC=O)=CC1=O (stereo not drawn)	–
9.5	10.5	Dose-dependent effect	Dose-dependent effect	Dose-dependent effect	Dose-dependent effect	COc1c(O)cc(NC=O)c(O)c1CCC1CCc2c(Cl)c(O)cc(O)c2C1=O (stereo not drawn)	–
